Results on 30 molecules are retold here after patent US20090312349A1, “ANTI-INFLAMMATORY MEDICAMENTS” (priority 2004, published 2009).

For experiment [1], the target named is T1, phospho p-38 alpha kinase (Homo sapiens, UniProt Q16539).
T1 construct: purchased Panvera
Description: P-38 alpha kinase assay (spectrophotometric, pyruvate kinase/lactate dehydrogenase coupled). Type of experiment: biochemical. On the procedure: In this assay, the oxidation of NADH was continuously measured spectrophometrically. […] The reaction was initiated by adding ATP. The absorption at 340 nm was monitored continuously for up to 4 hours at 30° C. on Polarstar Optima plate reader (BMG). The kinase activity (reaction rate) was calculated from the slope at the time frame from 1.5 h to 2 h.
For inhibition determinations, test compounds were incubated with the reaction mixture for ˜5 min before adding ATP to start the reaction. […] IC50 values were calculated from a series of % inhibition values determined at a range of concentrations of each inhibitor using Prism to process the data and fit inhibition curves. Generally, the rates obtained at the time frame of 1.5 h to 2 h were used for these calculations.

In experiment [2] the target is phosphorylated p-38-alpha kinase (Homo sapiens, UniProt Q16539). Description: P-38 alpha kinase assay P1. Type of experiment: biochemical. Particulars: Method P1; 2 h pre-incubation before ATP.
Sequence of phosphorylated p-38-alpha kinase (Q16539 1-360 isoform Q16539-2): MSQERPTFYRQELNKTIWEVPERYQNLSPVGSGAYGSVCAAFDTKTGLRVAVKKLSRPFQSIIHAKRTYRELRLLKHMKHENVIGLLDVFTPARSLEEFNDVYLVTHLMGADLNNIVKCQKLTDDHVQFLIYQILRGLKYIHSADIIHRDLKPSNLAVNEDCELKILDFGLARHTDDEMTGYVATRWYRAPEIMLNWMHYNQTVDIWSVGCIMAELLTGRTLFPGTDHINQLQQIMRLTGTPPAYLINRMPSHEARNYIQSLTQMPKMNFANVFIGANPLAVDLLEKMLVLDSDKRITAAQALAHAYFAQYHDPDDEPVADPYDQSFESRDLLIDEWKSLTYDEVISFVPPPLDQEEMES
[3] abbreviates: Table 5, assay not named, read-out: uM.

SMILES strings stand for the structures. Where two headings read alike, the source gives them in different places.

T1 sequence (Q16539 whole entry): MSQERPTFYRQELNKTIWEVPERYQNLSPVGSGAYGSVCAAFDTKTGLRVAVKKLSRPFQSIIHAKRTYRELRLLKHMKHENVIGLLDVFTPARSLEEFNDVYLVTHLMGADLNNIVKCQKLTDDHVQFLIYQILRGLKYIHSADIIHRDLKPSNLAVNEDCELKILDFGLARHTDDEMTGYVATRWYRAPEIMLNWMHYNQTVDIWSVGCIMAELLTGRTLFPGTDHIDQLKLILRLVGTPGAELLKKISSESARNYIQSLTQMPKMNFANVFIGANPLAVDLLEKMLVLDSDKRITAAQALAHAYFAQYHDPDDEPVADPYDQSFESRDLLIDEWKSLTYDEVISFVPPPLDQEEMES

For the molecule `CC(C)(C)c1cc(NC(=O)Nc2ccc(Cl)cc2)n(-c2cccc(Cn3c(=O)[nH]n(-c4ccccc4)c3=O)c2)n1` [Example 392, 1-(3-t-butyl-1-{3-[(3,5-dioxo-1-phenyl-1,2,4-triazolidin-4-yl)methyl]phenyl}-1H-pyrazol-5-yl)-3-(4-chlorophenyl)urea], the “% @ concentration, uM” value in experiment [1] (Table 5, @ 0.1 uM) came out at 75%; in experiment [1] (Table 5, @ 1 uM), 86%.
Turning to `CCOC(=O)c1cccc(-n2nc(C(C)(C)C)cc2NC(=O)Nc2ccc(F)cc2)c1` [Example 393, ethyl 3-{3-t-butyl-5-[3-(4-fluorophenyl)ureido)-1H-pyrazol-1-yl}benzoate], the IC50 in experiment [1] (setting [3]) was determined as 0.4 µM.
Still for that read-out and setting: with `CC(C)(C)c1cc(NC(=O)Nc2ccc(F)cc2)n(-c2cccc(Cn3c(=O)[nH]n(-c4ccccc4)c3=O)c2)n1` [Example 395, 1-{3-t-butyl-1-(3-[(3,5-dioxo-1-phenyl-1,2,4-triazolidin-4-yl)methyl]phenyl}-1H-pyrazol-5-yl)-3-(4-fluorophenyl)urea] the figure was 0.056 µM.
With `CC(C)(C)c1cc(NC(=O)Nc2cccc(Cl)c2Cl)n(-c2cccc(Cn3c(=O)[nH]n(-c4ccccc4)c3=O)c2)n1` [Example 396, 1-(3-t-butyl-1-{3-[(3,5-dioxo-1-phenyl-1,2,4-triazolidin-4-yl)methyl]phenyl}-1H-pyrazol-5-yl)-3-(2,3-dichlorophenyl)urea], the “% @ concentration, uM” value in experiment [1] (Table 5, @ 0.1 uM) is 3%; in experiment [1] (Table 5, @ 1 uM) it was 56%.
Turning to `CCOC(=O)Cc1cccc(-n2nc(C(C)(C)C)cc2NC(=O)Nc2ccccc2)c1` [Example 397, ethyl 2-{3-[3-t-butyl-5-(3-phenylureido)-1H-pyrazol-1-yl]phenyl}acetate], the IC50 in experiment [1] (setting [3]) amounted to 0.04 µM.
Turning to `CC(C)(C)c1cc(NC(=O)Nc2ccc(Cl)cc2)n(-c2cccc(CC(=O)O)c2)n1` [Example 399, 2-(3-{3-t-butyl-5-[3-(4-chlorophenyl)ureido]-1H-pyrazol-1-yl-}phenyl)acetic acid], the “% @ concentration, uM” value in experiment [1] (Table 5, @ 0.1 uM) amounted to 21%; in experiment [1] (Table 5, @ 1 uM) it was 74%.
Consider `CC(C)(C)c1cc(NC(=O)Nc2cccc3ccccc23)n(-c2ccc3c(c2)CNCC3)n1` [Example 406, 1-[3-t-butyl-1-(1,2,3,4-tetrahydroisoquinolin-7-yl)-1H-pyrazol-5-yl]-3-(naphthalen-1-yl)urea], for which the IC50 in experiment [1] (setting [3]) amounted to 0.0134 µM.
On the same count and under the same terms, with `CC(C)(C)c1cc(NC(=O)Nc2ccc(Cl)cc2)n(-c2ccc3c(c2)CNCC3)n1` [Example 407, 1-[3-t-butyl-1-(1,2,3,4-tetrahydroisoquinolin-7-yl)-1H-pyrazol-5-yl]-3-(4-chlorophenyl)urea] the figure was 0.0103 µM; with `Cn1[nH]c(=O)n(Cc2cccc(-n3nc(C(C)(C)C)cc3NC(=O)Nc3cccc(Cl)c3Cl)c2)c1=O` [Example 408, 1-{5-t-butyl-2-[3-(1-methyl-3,5-dioxo-[1,2,4)triazolidin-4-ylmethyl)-phenyl]-2H-pyrazol-3-yl}-3-(2,3-dichloro-phenyl)-urea], 0.116 µM.
On the same count and under the same terms, in the case of `CC(C)c1cc(NC(=O)Nc2cccc3ccccc23)n(-c2ccc(C(O)C(F)(F)F)cc2)n1` (stereo not drawn) [Example 411, 1-(1-(4-(2,2,2-trifluoro-1-hydroxyethyl)phenyl)-3-isopropyl-1H-pyrazol-5-yl)-3-(naphthalen-1-yl)urea] it was 0.008 µM.
Take `CC(C)(C)c1cc(NC(=O)Nc2cccc3ccccc23)n(-c2ccc(O)cc2)n1` [Example 415, 1-(3-t-butyl-1-(4-hydroxyphenyl)-1H-pyrazol-5-yl)-3-(naphthalen-1-yl)urea]: the “% @ concentration, uM” value in experiment [1] (Table 5, @ 0.1 uM) stood at 28%; in experiment [1] (Table 5, @ 1 uM), 69%.
The corresponding values for `COC(=O)COc1ccc(-n2nc(C(C)(C)C)cc2NC(=O)Nc2cccc3ccccc23)cc1` [Example 416, 1-(3-t-butyl-1-(4-(carbomethoxymethyl)oxyphenyl)-1H-pyrazol-5-yl)-3-(naphthalen-1-yl)urea] are 67% and 83%.
Consider `CC(C)(C)c1cc(NC(=O)Nc2ccc(Cl)cc2)n(-c2ccc(OCc3ccccc3)cc2)n1` [Example 418, 1-(3-t-butyl-1-(4-(benzyloxy)phenyl)-1H-pyrazol-5-yl)-3-(4-chlorophenyl)urea], for which, in experiment [1] (setting [3]), the IC50 was 0.075 µM.
On the same count and under the same terms, with `CC(C)(C)c1cc(N)n(-c2ccc(O)cc2)n1` [Example 420, 4-(3-t-butyl-5-amino-1H-pyrazol-1-yl)phenol] the figure was 0.0147 µM.
Still for that read-out and setting: with `CC(C)(C)c1cc(NC(=O)Nc2ccc(Cl)cc2)n(-c2ccc(O)cc2)n1` [Example 421, 1-(3-t-butyl-1-(4 hydroxyphenyl)-1H-pyrazol-5-yl)-3-(4-chlorophenyl)urea] the figure was 0.0147 µM; with `CCOC(=O)CCc1cccc(-n2nc(C(F)(F)F)cc2NC(=O)Nc2ccc(Cl)cc2)c1` [Example 426, 3-{3-(5-[3-(4-chloro-phenyl)-ureido]-3-trifluoromethyl-pyrazol-1-yl}-phenyl)-propionic acid ethyl ester], 0.013 µM.
On the same count and under the same terms, with `O=C(O)CCc1cccc(-n2nc(C(F)(F)F)cc2NC(=O)Nc2ccc(Cl)cc2)c1` [Example 427, 3-(3-(5-(3-(4 chlorophenyl)ureido)-3-(trifluoromethyl)-1H-pyrazol-1-yl)phenyl)propanoic acid] the figure was 0.819 µM.
As to `CCOC(=O)CCc1cccc(-n2nc(C)cc2NC(=O)Nc2ccc(Cl)cc2)c1` [Example 428, 3-(3-{5-[3-(4-chloro-phenyl)-ureido)-3-methyl-pyrazol-1-yl}-phenyl)-propionic acid ethyl ester], the IC50 in experiment [1] (setting [3]) came out at 0.14 µM.
On the same count and under the same terms, with `CC(C)c1cc(NC(=O)Nc2ccc(Cl)cc2)n(-c2cccc(CCC(=O)O)c2)n1` [Example 429, 3-(3-(5-(3-(4-chlorophenyl)ureido)-3-isopropyl-1H-pyrazol-1-yl)phenyl)propanoic acid] the figure was 1.07 µM; with `O=C(O)Cc1cccc(-n2nc(-c3ccccc3)cc2NC(=O)Nc2cccc(Cl)c2Cl)c1` [Example 430, 2-(3-(5-(3-(2,3-dichlorophenyl)ureido)-3-phenyl-1H-pyrazol-1-yl)phenyl)acetic acid], 0.942 µM.
`O=C(O)Cc1cccc(-n2nc(-c3cccc(F)c3)cc2NC(=O)Nc2cccc(Cl)c2Cl)c1` [Example 432, 2-(3-(5-(3-(2,3-dichlorophenyl)ureido)-3-(3-fluorophenyl)-1H-pyrazol-1-yl)phenyl)acetic acid]: the “% @ concentration, uM” value is recorded as 9% in experiment [1] (Table 5, @ 1 uM) and 24% in experiment [1] (Table 5, @ 10 uM). The molecule also gave an IC50 in experiment [2] of 0.011 µM.
For the molecule `O=C(O)Cc1ccc(-n2nc(-c3cccc(F)c3)cc2NC(=O)Nc2cccc(Cl)c2Cl)cc1` [Example 439, 2-(4-(5-(3-(2,3-dichlorophenyl)ureido)-3-(3-fluorophenyl)-1H-pyrazol-1-yl)phenyl)acetic acid], the IC50 in experiment [2] was determined as 0.013 µM.
`NC(=O)Cc1cccc(-n2nc(-c3ccccc3)cc2NC(=O)Nc2cccc(Cl)c2Cl)c1` [Example 447, 1-(1-(3-(2-amino-2-oxoethyl)phenyl)-3-phenyl-1H-pyrazol-5-yl)-3-(2,3-dichlorophenyl)urea] gave an IC50 in experiment [2] of 0.011 µM.
For `O=C(Cc1ccc(-n2nc(-c3cccs3)cc2NC(=O)Nc2cccc(Cl)c2Cl)cc1)NCC(O)CO` (stereo not drawn) [Example 472, 1-(2,3-dichlorophenyl)-3-(1-(4-(2-(2,3-dihydroxypropylamino)-2-oxoethyl)phenyl)-3-(thiophen-2-yl)-1H-pyrazol-5-yl)urea], the IC50 in experiment [1] (setting [3]) was 0.05 µM; in experiment [2], 0.01 µM.
The corresponding values for `O=C(Cc1ccc(-n2nc(-c3cccs3)cc2NC(=O)Nc2cccc(Cl)c2Cl)cc1)NC(CO)CO` [Example 474, 1-(2,3-dichlorophenyl)-3-(1-(4-(2-(1,3-dihydroxypropan-2-ylamino)-2-oxoethyl)phenyl)-3-(thiophen-2-yl)-1H-pyrazol-5-yl)urea] are 0.38 µM and 0.013 µM.
Consider `CN1CCN(C(=O)Cc2ccc(-n3nc(-c4ccccc4)cc3NC(=O)Nc3cccc(Cl)c3Cl)cc2)CC1` [Example 475, 1-(2,3-dichlorophenyl)-3-(1-(4-(2-(4-methylpiperazin-1-yl)-2-oxoethyl)phenyl)-3-phenyl-1H-pyrazol-5-yl)urea], for which the IC50 in experiment [1] (setting [3]) was determined as 0.01 µM.
`O=C(Nc1cccc(Cl)c1Cl)Nc1cc(-c2ccccc2F)nn1-c1ccc(CC(=O)N2CC[C@H](O)C2)cc1` [Example 479, 1-(2,3-dichlorophenyl)-3-(3-(2-fluorophenyl)-1-(4-(2-((S)-3-hydroxypyrrolidin-1-yl)-2-oxoethyl)phenyl)-1H-pyrazol-5-yl)urea] showed an IC50 in experiment [2] of 0.037 µM.
Regarding `O=C(Nc1cccc(Cl)c1Cl)Nc1cc(-c2cccs2)nn1-c1cccc(CO)c1` [Example 486, 1-(2,3-dichlorophenyl)-3-(1-(3-(hydroxymethyl)phenyl)-3-(thiophen-2-yl)-1H-pyrazol-5-yl)urea], the IC50 in experiment [1] (setting [3]) came out at 0.057 µM.
On the same count and under the same terms, with `CC(Cc1cccc(-n2nc(-c3cccs3)cc2NC(=O)Nc2cccc(Cl)c2Cl)c1)C(=O)O` (stereo not drawn) [Example 490, 3-(3-(5-(3-(2,3-dichlorophenyl)ureido)-3-(thiophen-2-yl)-1H-pyrazol-1-yl)phenyl)-2-methylpropanoic acid] the figure was 0.34 µM.
On to `CC(C)(C)c1cc(NC(=O)Nc2cccc3ccccc23)n(-c2cccc(CO)c2)n1` [Example D, 1-{3-t-butyl-1-[3-(hydroxymethyl)phenyl]-1H-pyrazol-5-yl}-3-(naphthalen-1-yl)urea], for which the IC50 in experiment [1] (Table 2, rates at […] to 2 h, read-out: IC50) turned out to be 0.179 µM.
